Test results from PubChem BioAssay AID1963977 (Molecular Pharmacology Branch, DTP, NCI, 2024).
Values joined by “and” are separate entries in the source; they are usually repeats but may differ in a detail not shown here. Equal entries are not always repeated.

System: 624824-186-R-J3-PDC multicell spheroids, viability
Assay: Anticancer human tumor 624824-186-R-J3-PDC patient-derived colon adenocarcinoma cell line growth inhibition [PI3K]
Conditions: for viability, T/C: stronger effect = lower value
Excerpt: Combinatorial screen of targeted agents with the PI3K inhibitors inavolisib, alpelisib, duvelisib, and copanlisib in multi-cell type tumor spheroids
A high-throughput screen of multi-cell type tumor spheroids was designed to identify active combinations of targeted small molecules and PI3K pathway inhibitors. Complex spheroids include a stromal component modeled by human endothelial cells (HUVEC) and fibroblasts modeled by human mesenchymal stem cells (MSCs). The concentration ranges selected for each drug and investigational agent were based upon clinically achievable concentrations if the clinical Cmax of the agent was known.
Compounds. The drugs and investigational agents: inavolisib (NSC800729), alpelisib (NSC765974), duvelisib (NSC772469), copanlisib (NSC816437), ipatasertib (NSC767898), afuresertib (NSC778305), talazoparib (NSC767125), sapanisertib (NSC764658), selumetinib (NSC741078), tovorafenib (DAY101, NSC766906), vemurafenib (NSC761431), ravoxertinib (NSC781343), sotorasib (NSC818433), MRTX1133 (NSC 836407), abemaciclib (NSC 768073), palbociclib (NSC758247), venetoclax (NSC 766270), SY5609 (NSC837396), enzalutamide (NSC755605), and darolutamide (NSC825331), were obtained from the National Cancer Institute (NCI) Developmental Therapeutics Program Chemical Repository. The FDA-approved anticancer drug set is available from the NCI Developmental Therapeutics Program. […] The stock solutions were prepared in dimethyl sulfoxide (DMSO, Sigma-Aldrich, St. Louis, MO, cat. D2650) at 800-fold the tested concentration and stored at -70 degrees C prior to their use. All drugs and investigational agents were tested over a range starting from a high concentration at or near the clinical Cmax and decreasing in half-log increments. If the clinical Cmax for an agent had not been determined, the highest concentration tested was 10 microM.
Cell Culture. All cells were maintained in an incubator at 37 degrees C and 5% CO2 with 95% humidity. The PDC lines were cultured according to standard operating procedures established by the NCI PDMR (https://pdmr.cancer.gov/sops/default.htm). All PDCs were thawed and cultured in Matrigel-coated flasks prepared with a working solution of 1X Ham's F-12 nutrient mix, without supplementation (Invitrogen, Waltham, MA, cat. 11765054), 100 U/mL penicillin-streptomycin (Invitrogen, cat. 15140122), and 2.5% Matrigel (Corning Inc., Corning, NY, cat. 354248) for the first three passages. The 354836-022-R-J1-PDC, 475296-252-R-J1-PDC, and 997726-040-R-J2-PDC lines were cultured in 6A media, which includes advanced DMEM/F-12 (Thermo Fisher Scientific, cat. 12634028), 10 mM HEPES (Thermo Fisher Scientific, cat. 15630080), 1X GlutaMAX supplement (Thermo Fisher Scientific, cat. 35050061), 0.1 mg/mL primocin (InvivoGen, San Diego, CA, cat. ant-pm-2), 10% defined fetal bovine serum, heat inactivated (HyClone Laboratories Inc., Logan, UT, cat. SH30070.03HI), 50% L-WRN conditioned media (ATCC, cat. CRL-3276), 1.25 mM N-Acetyl-L-cysteine (Sigma-Aldrich, cat. A9165), 10 mM nicotinamide (Sigma-Aldrich, cat. N0636), 1X B-27 supplement (Thermo Fisher Scientific, cat. 17504044), 1X N-2 supplement (Thermo Fisher Scientific, cat. 17502048), and 10 microM Y-27632 dihydrochloride (Tocris Bioscience, Bristol, United Kingdom, cat. 1254). The 624824-186-R-J2-PDC line was cultured in 6C/Colon 1B media, which includes all 6A media components plus 50 ng/mL human EGF recombinant protein (Thermo Fisher Scientific, cat. PHG0311). […]
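Further: spheroids exposed to agents for seven days before luminescence read.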
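Wherever viability, T/C is given: luminescent signal used as a stand-in for spheroid viability; percent viability relative to DMSO vehicle control wells taken as 100%.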

## Cn1ncnc1[C@H]1c2n[nH]c(=O)c3cc(F)cc(c23)N[C@@H]1c1ccc(F)cc1
Compound 0.000316 µM
  viability, T/C: 110% [middle of 4 runs]
Compound 0.001 µM
  viability, T/C: 100% [middle of 4 runs]
Compound 0.01 µM
  viability, T/C: 99.7% [middle of 4 runs]
Compound 0.0316 µM
  viability, T/C: 103% (2×) and 93.2% and 95.4%
Compound 0.1 µM
  viability, T/C: 98.4% [middle of 4 runs]
Curve of compound
  IC50: > 0.1 µM

## CC1(C)CCC(Nc2ncc(C(F)(F)F)c(-c3c[nH]c4c(P(C)(C)=O)c(C#N)ccc34)n2)CN1 (stereo not drawn) + CC(Nc1ccc2c(c1)OCCn1cc(N3C(=O)OCC3C(F)F)nc1-2)C(N)=O
Curve of first compound, second compound 0.00316 µM
  IC50: 5.18 µM
Curve of first compound, second compound 0.01 µM
  IC50: 5.16 µM
Curve of first compound, second compound 0.0316 µM
  IC50: 5.28 µM
Curve of first compound, second compound 0.1 µM
  IC50: 4.79 µM
Curve of first compound, second compound 0.316 µM
  IC50: 4.54 µM
Curve of first compound, second compound 1 µM
  IC50: 3.18 µM
Second compound 0.00316 µM, first compound 0.0316 µM
  viability, T/C: 106%
Second compound 0.00316 µM, first compound 0.1 µM
  viability, T/C: 90.5%
Second compound 0.00316 µM, first compound 0.316 µM
  viability, T/C: 89.4%
Second compound 0.00316 µM, first compound 1 µM
  viability, T/C: 89.6%
Second compound 0.00316 µM, first compound 3.16 µM
  viability, T/C: 85.5%
Second compound 0.00316 µM, first compound 10 µM
  viability, T/C: 2.71%
Second compound 0.01 µM, first compound 0.0316 µM
  viability, T/C: 104%
Second compound 0.01 µM, first compound 0.1 µM
  viability, T/C: 95.6%
Second compound 0.01 µM, first compound 0.316 µM
  viability, T/C: 92.7%
Second compound 0.01 µM, first compound 1 µM
  viability, T/C: 96.3%
Second compound 0.01 µM, first compound 3.16 µM
  viability, T/C: 84.2%
Second compound 0.01 µM, first compound 10 µM
  viability, T/C: 3.61%
Second compound 0.0316 µM, first compound 0.0316 µM
  viability, T/C: 99.4%
Second compound 0.0316 µM, first compound 0.1 µM
  viability, T/C: 88.7%
Second compound 0.0316 µM, first compound 0.316 µM
  viability, T/C: 89.4%
Second compound 0.0316 µM, first compound 1 µM
  viability, T/C: 93.5%
Second compound 0.0316 µM, first compound 3.16 µM
  viability, T/C: 87.8%
Second compound 0.0316 µM, first compound 10 µM
  viability, T/C: 3.03%
Second compound 0.1 µM, first compound 0.0316 µM
  viability, T/C: 90%
Second compound 0.1 µM, first compound 0.1 µM
  viability, T/C: 85.5%
Second compound 0.1 µM, first compound 0.316 µM
  viability, T/C: 89.8%
Second compound 0.1 µM, first compound 1 µM
  viability, T/C: 85.7%
Second compound 0.1 µM, first compound 3.16 µM
  viability, T/C: 76.5%
Second compound 0.1 µM, first compound 10 µM
  viability, T/C: 2.82%
Second compound 0.316 µM, first compound 0.0316 µM
  viability, T/C: 81.8%
Second compound 0.316 µM, first compound 0.1 µM
  viability, T/C: 64.8%
Second compound 0.316 µM, first compound 0.316 µM
  viability, T/C: 68.2%
Second compound 0.316 µM, first compound 1 µM
  viability, T/C: 76.5%
Second compound 0.316 µM, first compound 3.16 µM
  viability, T/C: 71.8%
Second compound 0.316 µM, first compound 10 µM
  viability, T/C: 2.32%
Second compound 1 µM, first compound 0.0316 µM
  viability, T/C: 54.9%
Second compound 1 µM, first compound 0.1 µM
  viability, T/C: 56.1%
Second compound 1 µM, first compound 0.316 µM
  viability, T/C: 57%
Second compound 1 µM, first compound 1 µM
  viability, T/C: 53.4%
Second compound 1 µM, first compound 3.16 µM
  viability, T/C: 50.5%
Second compound 1 µM, first compound 10 µM
  viability, T/C: 2.4%
